From patent publication US20060188867A1, “Method of cryopreserving cells and tissues by liposomal delivery of sugars to enhance post-thaw viability” (Canadian Blood Services, priority 2005, published 2006)

Tested on: red blood cells (RBCs)
Test: flow cytometry of liposomal loading of carboxyfluorescein/trehalose into red blood cells, FIGS. 1A-1E
Type: cell-based, human
Settings: no liposomes (FIG. 1C)
Protocol: However, it should be noted that the ratio of DPPC to cholesterol can, of course, be varied, as will be appreciated by those of ordinary skill in the art. The liposomes also have an aqueous core that can be composed of, by way of example only, 3.3 mM NaCl, 40 mM KCl, 1.7 mM glucose, 6.7 mM HEPES, 200 mM sucrose or trehalose and 100 μM 5(6)-carboxyfluorescein (CF). As it is known in the art, 5(6)-CF is an impermeable fluorescent marker with a molecular weight similar to that of sucrose and trehalose. This marker can be used to detect the liposome population using flow cytometry and is thus a useful and reliable indicator of loading efficiency. A single uniform population and intense FITC (Fluorescein isothiocyanate) peak verify liposome homogeneity and entrapment of the marker in the aqueous core.
In order to validate the methods described herein, human red blood cells and TF-1 (CRL2003, ATTC) cells were used as […] model systems. The mechanism of liposomal interaction with the cell is believed to be cell-type dependent and is believed to involve processes of adsorption, fusion and endocytosis.
FIGS. 1A to 1E are flow cytometry plots used to examine the effects of loading trehalose into red blood cells (RBCs). Liposomes composed of DPPC/cholesterol in the ratio of 70:30 were constructed so as to have a concentration of 0.29M trehalose inside and outside. […]

permeation of free CF into RBCs (fluorescence of RBCs in CF-containing media): cannot cross into RBCs
Substance: 5(6)-carboxyfluorescein [CF]
